The values that follow come from patent publication US7524851B2 (Robert Bosch Gesellschaft fur Medizinische Forschung (RBMF), priority 2003, dated 2009).

In data set [1] the test system is caspase-3. As to the kind of experiment: Fluorometric protease assay, caspase-3 activity in T lymphocytes. The data set is classed as cell-based, human. The settings on record: CD3/CD28/rIL-2 stimulated T cells, 5 days. As for the experimental part:
(§1) Caspase-3 proteolytic activity was determined at day 5 by the caspase-3/CPP 32 fluorometric protease assay (Bio Source; Worcester, Mass., USA) according to the manufacturer's protocol. Caspase-8 and caspase-9 proteolytic activity were assessed in parallel by the corresponding fluorometric protease assays (Bio Source).

For data set [2], the system named is IκB. The data set can be described thus: IκB phosphorylation and expression (Western blot). The data set is classed as cell-based, human. As to conditions: 3 days. As for the experimental part: (§2) The cells were then washed in PBS, resuspended in 1 ml of T40E10N150 buffer (40 mM Tris-HCl [pH 7.9], 10 mM EDTA [pH 8.0], 150 mM NaCl), put on ice for 5 minutes, and centrifuged for 4 minutes at 4° C. at 1,000 rpm. The cell pellet was then resuspended on ice in 70 μl of buffer (10 mM HEPES [pH 8.0], 400 mM NaCl, 0.1 mM EDTA, 5% glycerol, 1 mM DTT, 1 mM PMSF) and centrifuged at 15,000 rpm for 30 minutes at 4° C. The protein concentrations in supernatants were determined with the Bio-Rad Protein Assay (Bio-Rad; Munich, Germany).
(§3) Western blots: Equal amounts of extract (30 μg) were added to 8 μl of electrophoresis sample buffer (Firma Roth; Karlsruhe, Germany). After boiling, the extracts were loaded on 15% SDS-PAGE gels and electrophoretically separated. Proteins were transferred to nitrocellulose membranes, and detection was performed with the ECL Western blotting analysis system (Amersham). […]
(In general: A western blot detects proteins with antibodies after separation by electrophoresis.)

Data set [3] relates to caspase-8. The data set can be described thus: Fluorometric protease assay, caspase-8 activity in T lymphocytes. In kind it is cell-based, human. As to conditions: CD3/CD28/rIL-2 stimulated T cells, 5 days; on average. Here is the method:
as §1

Data set [4] relates to caspase-9. As to the kind of experiment: Fluorometric protease assay, caspase-9 activity in T lymphocytes. The data set is classed as cell-based, human. The settings on record: CD3/CD28/rIL-2 stimulated T cells, 5 days. Here is the method: as §1
The test system of data set [5] is NF-κB p50/p65. The data set can be described thus: NF-κB electrophoretic mobility shift assay. The data set is classed as cell-based, human. As to conditions: EMSA. (In general: In EMSA bound probe runs differently from free probe, usually more slowly.)
Method: Isolation of nuclear proteins: T lymphocytes were washed twice in cold PBS and resuspended in 500 μl of buffer A (10 mM HEPES, 1.5 mM MgCl2, 19 mM KCl, 0.5 mM PMSF, 1 mM DTT) followed by addition of 20 μl of Triton X-100 (Sigma-Aldrich) and incubation on ice for 5 minutes. Cells were centrifuged for 10 minutes at 4° C., followed by the resuspension of the nuclear pellet in buffer C (20 mM HEPES, 1.5 mM MgCl2, 0.2 mM EDTA, 25% glycerol, 0.5 mM PMSF, 1 mM DTT). Finally, the nuclei were homogenized using mini stir bars for 1 hour at 4° C. followed by centrifugation at 15,000 rpm for 15 minutes at 4° C. The concentration of nuclear proteins in supernatants was assessed using the Bio-Rad Protein Assay.
Electrophoretic mobility shift assays: Electrophoretic mobility shift assays (EMSAs) were performed as described in Atreya et al., supra. Oligonucleotides for EMSA were obtained from Santa Cruz Biotech (Heidelberg, Germany). The sequences were as follows: NF-κB, 5′-[sequence]-3′ (SEQ ID NO: 1) and 3′-[sequence]-5′ (SEQ ID NO: 2); and SP-1,5′-[sequence]-3′ (SEQ ID NO: 3) and 3′-[sequence]-5′ (SEQ ID NO: 4). Oligonucleotides were end labeled with [^32P]γ-ATP (>5000 Ci/mmol; Amersham; Arlington Heights, Ill., USA) using T4 polynucleotide kinase (New England Biolabs; Beverly, Mass., USA). […]
In data set [6] the test system is MEK. The data set can be described thus: MEK phosphorylation and expression (Western blot, FACS). The data set is classed as cell-based, human. As to conditions: 3 days. Here is the method:
FACS analysis: Analysis of peripheral blood T cells and lamina propria T lymphocytes by FACS (FACSscan; Becton Dickinson; Berlin, Germany) was performed using FITC-labeled murine antibodies to human CD4 (PharMingen), anti-mouse IgG1 isotype control antibodies (PharMingen), antibodies to bcl-xL and p mitogen-activated protein kinase kinase (pMEK) (Santa Cruz Biotech; Santa Cruz, Calif., USA), and goat anti-mouse Fab-FITC (DAKO). For intracellular staining analysis, T cells were fixed in PBS/4% paraformaldehyde (Merck; Munich, Germany) for 10 minutes at 4° C., washed twice in PBS, permeabilized in PBS/0.1% Triton X-100 (Sigma-Aldrich; Steinheim, Germany), and treated with mouse anti-human bcl-xL or MEK antibodies (2 μg per 5×10^5 cells) for 30 minutes on ice. T cells were washed twice in PBS/0.1% Triton X-100 before incubation with goat anti-mouse Fab-FITC (2 μl per 10^5 cells). Finally, T cells were washed twice in PBS before FACS analysis.
as §2, §3

Data set [7] relates to primary CD4+ T lymphocytes. The data set can be described thus: Mitochondrial membrane potential (JC-1, FACS). As to conditions: 5 days.
In data set [8] the test system is lamina propria mononuclear cells. As to the kind of experiment: TUNEL assay for apoptotic lamina propria mononuclear cells in IBD patients. In kind it is in vivo, human. An excerpt:
FIG. 3. […] (a) LPMCs were isolated and stimulated with anti-CD2/CD28 plus IL-2 in the presence or absence of 6-MP for 5 days followed by FACS analysis. […] Data represent mean values±SEM from eight patients with IBD per group. […] Data are representative of 5-13 patients per group. Magnification, ×20 (bar=100 μm) (ce) and ×40 (bar=50 μm) (f-h). (i) Quantification of the percentage of apoptotic, TUNEL-positive LPMCs in patients with IBD receiving 6-MP as compared with untreated control patients. […] Data are mean values±SEM of 5-13 patients per group.

For data set [9] the following is noted: after oral administration and absorption; non-enzymatic attack by sulfhydryl-containing compounds; cited from earlier work.
For data set [10], the system named is Rac1. The settings on record: primary T cells upon azathioprine treatment.
Data set [11] has as its system Crohn's disease. The settings on record: CD patients, long-term azathioprine. Here is the method:
The diagnosis of CD was confirmed in all patients by radiographic, endoscopic, and histopathologic parameters. Clinical outcomes such as the Crohn's disease activity index (CDAI), number of flares per year, and demand for anti-TNF antibody (e.g., infliximab) treatment were determined on clinical visits.

The conditions of data set [12]: all 47 CD patients.
Method: Blood Sampling: Blood samples from patients were collected into EDTA tubes and the packed red blood cells (RBCs) were isolated by centrifugation within 6 hours after blood drawing. The RBCs were immediately frozen at −80° C. until analysis.
6-thioguanine nucleotides (6-TGN) and the methylated metabolites S-methyl-mercaptopurine ribonucleotides (6-MMPR) and S-methyl 6-thioguanosine nucleotides (MTGN) were quantified by a high-performance liquid chromatographic (HPLC) assay as described in Herrlinger et al., Aliment Pharmacol Ther. 19:1269-1276 (2004).
The concentrations of 6-thioguanosine 5′-mono-, di-, and triphosphate (TGMP, TGDP, and TGTP, respectively) were determined separately by the method described in Example 2 above. […] The 5′-phosphates were isolated, extracted, and oxidized as described by Rabel et al., Anal. Biochem. 224:315-322 (1995) with slight modifications. HPLC separation was achieved by reversed phase HPLC on a C18 column with phosphate buffer (20 mM, pH 6.8) and 5 mM tetrabutylammonium hydrogen sulfate/acetonitrile 84:16 (v/v) as the mobile phase. Using fluorescence detection, quantification of 6-thioguanosine nucleotides was performed at concentration ranges of 25 to 400 pmol/100 μL RBC for TGTP, 10 to 100 pmol/100 μL for TGDP, and 10 to 50 pmol/100 μL RBC for TGMP.
The test system of data set [13] is bcl-xL mRNA. As to conditions: anti-CD3- plus anti-CD28-activated T lymphocytes.
Method: The mRNA of T cells was extracted at the indicated time points using the Tri-reagent (Sigma-Aldrich) according to the manufacturer's protocol. In brief, the cell pellet was lysed in 1 ml of Tri-reagent before addition of 200 μl of chloroform (Sigma-Aldrich; Steinheim, Germany). Each sample was gently mixed before incubation (for 5 minutes at 20° C.) and centrifugation (12,000 g for 15 minutes at 4° C.). The aqueous phase was transferred to a fresh tube, and 0.5 ml of isopropanol (Sigma-Aldrich) was added. Samples were allowed to stand for 5 minutes at room temperature before centrifugation at 12,000 g (for 10 minutes at 4° C.). The supernatants were removed, and the RNA pellet was washed in 75% ethanol.
Gene arrays: mRNA from T lymphocytes was analyzed by the human apoptosis expression array (R&D) as follows. To generate radiolabeled cDNA, 4 μl of human apoptosis-specific primers (R&D) were added to 4 μg of the isolated mRNA, heated in a thermal cycler at 90° C. for 2 minutes, and incubated at 42° C. for 180 minutes in the presence of reverse transcriptase buffer (50 mM Tris-HCl, 8 mM MgCl2, 30 mM KCl, 1 mM DTT), 333 μM dATP, 333 μM dGTP, 333 μM dTTP, 1.67 μM dCTP, 20 U of RNasin, 20 μCi of ^32P-labeled dCTP (Amersham; Freiburg, Germany), and 50 U of AMV reverse transcriptase. […]
[14] abbreviates: subgroup n=6 (low 6-TGN, low TGTP ratio).
Setting [15] is: subgroup n=13 (high 6-TGN and TGDP levels, ratio less than about 0.85).
[16] abbreviates: subgroup n=13 (high 6-TGN and TGTP levels, ratio greater than about 0.85).
The mark [17] stands for this setting: subgroup n=15 (low 6-TGN, high TGTP ratio).
The mark [18] stands for this setting: subgroup n=21 (low 6-TGN levels).
The mark [19] stands for this setting: subgroup n=26 (high 6-TGN levels).

Where “and” joins values, the source holds several entries; their conditions need not be identical. Equal entries are not always repeated. Where two headings read alike, the source gives them in different places.

With `Sc1ncnc2nc[nH]c12` [6-MP, 6-mercaptopurine], the caspase-3 activity entry in data set [1] was “marked induction”. In data set [2], the IκB phosphorylation entry is recorded as “suppressed” and the “IκB protein expression levels” value is “unchanged”. Also, the “induction of caspase-8” value in [3] is on record as “less pronounced”. In addition, the caspase-9 activity entry in data set [4] was “marked induction”. In addition, the “nuclear expression of the p65 subunit of NF-κB” value in [5] is “downregulated”. Further, the “CD28-induced activation of NF-κB p50/p65” value in data set [5] (nuclear proteins after 3 days) was “suppressed”. For the same molecule, in data set [6], the MEK phosphorylation entry is “suppresses”. Moreover, the “ΔΨm in primary T cells” value in data set [7] is reported as “loss of ΔΨm”. In addition, the “number of apoptotic cells” value in data set [8] (6-MP-resistant patients with IBD) is given as “no increase”. For the same molecule, the “number of apoptotic lamina propria mononuclear cells” value in data set [8] (successful 6-MP treatment vs untreated patients with IBD, P<0.01) is “significant increase”.
With `Cn1cnc([N+](=O)[O-])c1Sc1ncnc2nc[nH]c12` [azathioprine, Azathioprine], the “conversion to 6-MP” value in [9] is given as “approximately 90%”. For the same molecule, the “6-TG detected in Rac1 pull-downs” value in data set [10] is given as “approximately 120 pg of 6-TG per microgram”. Besides, in data set [11] (setting [14]), the “CDAI (Crohn's disease activity index)” value stood at 151 ± 55, the “Flares (number of flares per year)” value turned out to be 1.4 ± 1.3, the “INF (infliximab use)” value is listed as 1.0 ± 0.6 and the “Response (clinical response rate)” value was determined as 0.5 ± 0.3. Besides, in data set [11] (setting [15]), the “CDAI (Crohn's disease activity index)” value came to 277 ± 62; the “Flares (number of flares per year)” value is 2.1 and 2.1 ± 0.9; the “INF (infliximab use)” value was 1.1 and 1.1 ± 0.5; the “Response (clinical response rate)” value was 0.15 and 0.15 ± 0.1. Moreover, in [11] (setting [16]), the “CDAI (Crohn's disease activity index)” value was 149 ± 35; the “INF (infliximab use)” value was 0.36 and 0.36 ± 0.2. In [11] (setting [17]), the “CDAI (Crohn's disease activity index)” value turned out to be 189 ± 28, the “Flares (number of flares per year)” value was 1.9 ± 1, the “INF (infliximab use)” value is on record as 1.1 ± 0.7 and the “Response (clinical response rate)” value is listed as 0.1 ± 0.1. Also, in data set [11] (setting [18]), the “CDAI (Crohn's disease activity index)” value was 176 ± 26; the “Flares (number of flares per year)” value is on record as 2.1 ± 0.9; the “INF (infliximab use)” value came to 1.1 ± 0.5; the “Response (clinical response rate)” value is 0.16 and 0.16 ± 0.1. Further, in [11] (setting [19]), the “CDAI (Crohn's disease activity index)” value was found to be 206 ± 36, the “Flares (number of flares per year)” value is recorded as 1.1 ± 0.6 and the “INF (infliximab use)” value is listed as 0.7 ± 0.3. Also, in data set [6], the MEK phosphorylation result is “suppressed” and the “expression levels of MEK” value is reported as “nearly unchanged”. Moreover, the “ΔΨm in primary T cells” value in data set [7] is reported as “loss of ΔΨm”. For the same molecule, the “TGMP levels in RBC” value in data set [12] is recorded as “only detectable in traces”. Besides, in [13], the “bcl-xL mRNA expression” value was “strongly suppressed”; the “mRNA expression of other genes such as IL-2R, TACI, and GAPDH” value is on record as “not affected”.
